One assay relates to S. aureus SK 23390. Put plainly: MIC in vitro (Table 1), S. aureus SK 23390. It counts as cell-based. The settings on record: Staphylococcus aureus. From the text:
(§1) Compound names corresponding to numbers are given in the experimental section. For comparative purposes, data for cephamandole, which is 7-mandelamido-3-(1-methyltetrazol-5-ylthiomethyl)-3-cephem-4-carboxylic acid, is also given in Tables 1 and 2.

The test system of another assay is Pseudo. sp. HH 63. Put plainly: MIC in vitro (Table 1), Pseudo. sp. HH 63. Format: cell-based. To be noted: in vitro, Pseudo. sp. HH 63; read-out: MIC. An excerpt:
(§2) The compounds of Formula I have antibacterial activity against both Gram-positive and Gram-negative organisms. […] Compound names corresponding to numbers are given in the experimental section. For comparative purposes, data for cephamandole, which is 7-mandelamido-3-(1-methyltetrazol-5-ylthiomethyl)-3-cephem-4-carboxylic acid, is also given in Tables 1 and 2.

A further assay deals with Salmonella ATCC 12176. Put plainly: MIC in vitro (Table 1), Salmonella ATCC 12176. It counts as cell-based.
From the text: as §2

For another assay, the system named is Serra. Marc. ATCC 13880. Put plainly: MIC in vitro (Table 1), Serra. Marc. ATCC 13880. Format: cell-based.
From the text: as §1

Another assay relates to E. coli SK 12140. Put plainly: MIC in vitro (Table 1), E. coli SK 12140. It counts as cell-based. The settings on record: Escherichia coli, SK12140, in vitro.
From the text: as §1

The test system of the next assay is Kleb. pneumo. SK 4200. As to the kind of experiment: MIC in vitro (Table 1), Kleb. pneumo. SK 4200. Format: cell-based.
From the text: as §1

The next assay concerns Kleb. pneumo. SK 1200. Put plainly: MIC in vitro (Table 1), Kleb. pneumo. SK 1200. It counts as cell-based.
From the text: as §1

A further assay concerns Proteus morgani 179. As to the kind of experiment: MIC in vitro (Table 1), Proteus morgani 179. Format: cell-based.
From the text: as §1

A further assay deals with E. coli HH 33779. Put plainly: MIC in vitro (Table 1), E. coli HH 33779. Format: cell-based.
From the text: as §1

The test system of a further assay is Strep. Faecalis HH 34358. Put plainly: MIC in vitro (Table 1), Strep. Faecalis HH 34358. It counts as cell-based. The settings on record: in vitro, Strep. Faecalis HH 34358.
From the text: as §1

The test system of another assay is Kleb. pneumo. 4200. Put plainly: In vivo mouse protection (Table 2), Kleb. pneumo. 4200.
From the text: as §1

Another assay deals with Entero. cloacae HH 31254. As to the kind of experiment: MIC in vitro (Table 1), Entero. cloacae HH 31254. The settings on record: Enterobacter cloacae. Format: cell-based.
From the text: as §1

Another assay has as its system S. aureus HH 127. Put plainly: MIC in vitro (Table 1), S. aureus HH 127. The settings on record: Staphylococcus aureus. It counts as cell-based.
From the text: as §1

In assay [1] the test system is Entero. aerog. ATCC 13048. Put plainly: MIC in vitro (Table 1), Entero. aerog. ATCC 13048. It counts as cell-based.
From the text: as §1

Another assay concerns Shigella HH 117. Put plainly: MIC in vitro (Table 1), Shigella HH 117. It counts as cell-based.
From the text: as §2

In a further assay the test system is E. coli 12140. Put plainly: In vivo mouse protection (Table 2), E. coli 12140.
From the text: as §1

Setting [2] is: SK23390, in vitro, S. aureus SK 23390, read-out: MIC.
[3] abbreviates: Salmonella, ATCC12176, in vitro, read-out: MIC.
Where [4] appears, read: in vitro, Serra. Marc. ATCC 13880, read-out: MIC.
The mark [5] stands for this setting: in vitro, Kleb. pneumo. SK 4200, read-out: MIC.
[6] abbreviates: Escherichia coli, HH33779, in vitro, E. coli HH 33779, read-out: MIC.
[7] abbreviates: Enterococcus faecalis, read-out: MIC.
Where [8] appears, read: HH31254, in vitro, Entero. cloacae HH 31254, read-out: MIC.
Setting [9] is: HH127, in vitro, S. aureus HH 127, read-out: MIC.
[10] abbreviates: Shigella, HH117, in vitro, read-out: MIC.
Setting [11] is: Escherichia coli, 12140, po, E. coli 12140, p.o.
Setting [12] is: Escherichia coli, 12140, sc, E. coli 12140, s.c.

Experimental findings from US4220644A, “7-Acylamino-3-(substituted tetrazolyl thiomethyl) cephalosporins” (SmithKline Corporation, priority 1976, dated 1980) are described below.

Each structure is given as a SMILES string. Converted amounts (≈) assume the structure as drawn. Read-outs that look alike come from different tables or passages of the source. Where only a bound is given, the exact number is not on record here.

As to `N[C@@H](C(=O)NC1C(=O)N2C(C(=O)O)=C(CSc3nnnn3CC(=O)O)CS[C@H]12)c1ccc(O)cc1` (stereo partly drawn) [II, 7-(D-α-Amino-4-hydroxyphenylacetamido)-3-(1-carboxymethyl-tetrazol-5-ylthiomethyl)-3-cephem-4-carboxylic acid], the MIC in the assay with S. aureus SK 23390 (setting [2]) is 12.5 mg/L (≈ 24 µM); in the assay with Pseudo. sp. HH 63 it was over 200 mg/L; in the assay on Salmonella ATCC 12176 (setting [3]) it was 1.6 mg/L (≈ 3.07 µM); in the assay with Serra. Marc. ATCC 13880 (setting [4]), over 200 mg/L; in the assay on E. coli SK 12140 (read-out: MIC) it was 3.1 mg/L (≈ 5.94 µM); in the assay with Kleb. pneumo. SK 4200 (setting [5]), 1.6 mg/L (≈ 3.07 µM). Moreover, the MIC is 6.3 mg/L (≈ 12.1 µM) against Kleb. pneumo. SK 1200; over 200 mg/L with Proteus morgani 179 (read-out: MIC); 12.5 mg/L (≈ 24 µM) in the assay on E. coli HH 33779 (setting [6]); 100 mg/L (≈ 192 µM) in the assay on Strep. Faecalis HH 34358 (setting [7]); 1.6 mg/L (≈ 3.07 µM) in the assay with Entero. cloacae HH 31254 (setting [8]); 12.5 mg/L (≈ 24 µM) with S. aureus HH 127 (setting [9]). Further, the MIC turned out to be 25 mg/L (≈ 47.9 µM) in assay [1] (in vitro, Entero. aerog. ATCC 13048, read-out: MIC) and 6.3 mg/L (≈ 12.1 µM) in the assay on Shigella HH 117 (setting [10]). The same compound yielded an ED50 in the assay with Kleb. pneumo. 4200 (po, Kleb. pneumo. 4200, p.o.) of 13.2 mg/kg.
Regarding `NC(=O)CCn1nnnc1SCC1=C(C(=O)O)N2C(=O)C(NC(=O)[C@H](O)c3ccccc3)[C@H]2SC1` (stereo partly drawn) [VII, 7-D-Mandelamido-3-[1-(2-carbamoylethyl)tetrazol-5-ylthiomethyl]-3-cephem-4-carboxylic acid], the MIC against S. aureus SK 23390 (SK23390) was 0.4 mg/L (≈ 0.77 µM); with S. aureus SK 23390 (setting [2]) it was 0.8 mg/L (≈ 1.54 µM); in the assay with Pseudo. sp. HH 63, over 200 mg/L; in the assay on Salmonella ATCC 12176 (setting [3]) it was 0.2 mg/L (≈ 0.385 µM); in the assay with Serra. Marc. ATCC 13880 it was 6.3 mg/L (≈ 12.1 µM); in the assay on Serra. Marc. ATCC 13880 (setting [4]) it was 50 mg/L (≈ 96.2 µM). The MIC worked out at 0.4 mg/L (≈ 0.77 µM) against E. coli SK 12140; 0.8 mg/L (≈ 1.54 µM) in the assay on E. coli SK 12140 (read-out: MIC); 0.4 mg/L (≈ 0.77 µM) in the assay with Kleb. pneumo. SK 4200; 0.8 mg/L (≈ 1.54 µM) with Kleb. pneumo. SK 4200 (setting [5]); 0.8 mg/L (≈ 1.54 µM) with Kleb. pneumo. SK 1200 (read-out: MIC); 0.8 mg/L (≈ 1.54 µM) against Proteus morgani 179. Besides, the MIC in the assay on Proteus morgani 179 (read-out: MIC) was 1.6 mg/L (≈ 3.08 µM); in the assay on E. coli HH 33779 (setting [6]), 1.6 mg/L (≈ 3.08 µM); in the assay with E. coli HH 33779 (in vitro, E. coli HH 33779), 3.1 mg/L (≈ 5.97 µM); in the assay with Strep. Faecalis HH 34358 (setting [7]), 12.5 mg/L (≈ 24.1 µM); in the assay on Strep. Faecalis HH 34358 it was 25 mg/L (≈ 48.1 µM); against Entero. cloacae HH 31254 (HH31254), 0.4 mg/L (≈ 0.77 µM). In addition, the figures for the MIC in the assay on Entero. cloacae HH 31254 (setting [8]), in the assay with Shigella HH 117 (setting [10]) and in the assay with Shigella HH 117 (in vitro) were 1.6 mg/L (≈ 3.08 µM), 0.2 mg/L (≈ 0.385 µM) and 0.4 mg/L (≈ 0.77 µM), respectively. Moreover, the ED50 with E. coli 12140 (setting [11]) came out at 25 mg/kg; with E. coli 12140 (setting [12]), 0.86 mg/kg; with Kleb. pneumo. 4200 (po, Kleb. pneumo. 4200, p.o.) it was 17 mg/kg; with Kleb. pneumo. 4200 (sc, Kleb. pneumo. 4200, s.c.), 0.78 mg/kg.
Take `O=C(O)CCn1nnnc1SCC1=C(C(=O)O)N2C(=O)C(NC(=O)[C@H](O)c3ccccc3)[C@H]2SC1` (stereo partly drawn) [VIII, 7-D-Mandelamido-3-[1-(2-carboxyethyl)tetrazol-5-ylthiomethyl]-3-cephem-4-carboxylic acid]: the MIC with Pseudo. sp. HH 63 is over 200 mg/L; in the assay with Salmonella ATCC 12176 (setting [3]), 0.8 mg/L (≈ 1.54 µM); in the assay with Salmonella ATCC 12176 (in vitro), 0.4 mg/L (≈ 0.768 µM); in the assay on Serra. Marc. ATCC 13880 it was 12.5 mg/L (≈ 24 µM); against Serra. Marc. ATCC 13880 (in vitro, Serra. Marc. ATCC 13880), 100 mg/L (≈ 192 µM); with Serra. Marc. ATCC 13880 (setting [4]) it was 50 mg/L (≈ 96.1 µM). Besides, the MIC was found to be 0.4 mg/L (≈ 0.768 µM) against E. coli SK 12140; 1.6 mg/L (≈ 3.07 µM) with E. coli SK 12140 (read-out: MIC); 1.6 mg/L (≈ 3.07 µM) in the assay with Kleb. pneumo. SK 4200 (in vitro, Kleb. pneumo. SK 4200); 0.8 mg/L (≈ 1.54 µM) in the assay on Kleb. pneumo. SK 4200 (setting [5]); 0.8 mg/L (≈ 1.54 µM) with Kleb. pneumo. SK 1200; 1.6 mg/L (≈ 3.07 µM) in the assay with Kleb. pneumo. SK 1200 (read-out: MIC). Moreover, the MIC in the assay on Proteus morgani 179 (read-out: MIC) was determined as 6.3 mg/L (≈ 12.1 µM); in the assay on Strep. Faecalis HH 34358 (setting [7]), 50 mg/L (≈ 96.1 µM); in the assay with Strep. Faecalis HH 34358, 100 mg/L (≈ 192 µM); with Entero. cloacae HH 31254 (HH31254), 3.1 mg/L (≈ 5.96 µM); in the assay on S. aureus HH 127 (HH127), 3.1 mg/L (≈ 5.96 µM); with S. aureus HH 127 (setting [9]) it was 1.6 mg/L (≈ 3.07 µM). For the same compound, the MIC in assay [1] is 3.1 mg/L (≈ 5.96 µM); in the assay on Shigella HH 117 (setting [10]), 0.8 mg/L (≈ 1.54 µM). Further, the ED50 is 50 mg/kg in the assay with E. coli 12140 (setting [11]); 0.86 mg/kg in the assay on E. coli 12140 (setting [12]); 25 mg/kg in the assay with Kleb. pneumo. 4200 (po, Kleb. pneumo. 4200, p.o.); 0.46 mg/kg in the assay with Kleb. pneumo. 4200 (sc, Kleb. pneumo. 4200, s.c.).
`NC(=O)CCn1nnnc1SCC1=C(C(=O)O)N2C(=O)C(NC(=O)[C@H](N)c3ccc(O)cc3)[C@H]2SC1` (stereo partly drawn) [X, 7-(D-α-Amino-4-hydroxyphenylacetamido)-3-[1-(2-carbamoylethyl)tetrazol-5-ylthiomethyl]-3-cephem-4-carboxylic acid]: the MIC in the assay with S. aureus SK 23390 (setting [2]) is 12.5 mg/L (≈ 23.4 µM); with Pseudo. sp. HH 63 it was over 200 mg/L; in the assay with Salmonella ATCC 12176 (setting [3]), 0.8 mg/L (≈ 1.5 µM); against E. coli SK 12140 it was 1.6 mg/L (≈ 2.99 µM); in the assay on Kleb. pneumo. SK 4200 it was 1.6 mg/L (≈ 2.99 µM); in the assay on Kleb. pneumo. SK 1200 (read-out: MIC), 3.1 mg/L (≈ 5.8 µM). Further, the MIC turned out to be 25 mg/L (≈ 46.8 µM) with Proteus morgani 179 (read-out: MIC); 1.6 mg/L (≈ 2.99 µM) in the assay with E. coli HH 33779 (Escherichia coli, HH33779); 25 mg/L (≈ 46.8 µM) with Strep. Faecalis HH 34358 (setting [7]); 1.6 mg/L (≈ 2.99 µM) in the assay with Entero. cloacae HH 31254 (HH31254); 6.3 mg/L (≈ 11.8 µM) against S. aureus HH 127 (HH127); 1.6 mg/L (≈ 2.99 µM) in the assay with Shigella HH 117 (setting [10]). Also, the ED50 with E. coli 12140 (setting [11]) came to 25 mg/kg; in the assay on E. coli 12140 (setting [12]), 0.78 mg/kg; in the assay on Kleb. pneumo. 4200 (po, Kleb. pneumo. 4200, p.o.) it was 15.6 mg/kg; with Kleb. pneumo. 4200 (sc, Kleb. pneumo. 4200, s.c.) it was 0.62 mg/kg.
